The values that follow come from US10945685B2, “System and method for normalizing standardized uptake values in brain positron emission tomography (PET) images” (New York University, priority 2018, dated 2021).

The subject of assay [1] is tau. Kind of assay: Tau PET tracer binding, SUVP peak-alignment method and positive binding percentage (PBP), AD patients and NL subjects. Type of assay: in vivo, human. The settings on record: for PBP of SUVP, Basal ganglia / PBP of SUVP, Cerebellar GM / PBP of SUVP, Cerebral GM / PBP of SUVP, Cerebral WM / PBP of SUVP, Frontal cortex / PBP of SUVP, Occipital cortex / PBP of SUVP, Partial cortex / PBP of SUVP, Temporal cortex: SUVP cutoff 1.5; for PBP of SUVP, Basal ganglia / PBP of SUVP, Cerebellar GM / PBP of SUVP, Cerebral GM / PBP of SUVP, Cerebral WM / PBP of SUVP, Frontal cortex / PBP of SUVP, Occipital cortex / PBP of SUVP, Partial cortex / PBP of SUVP, Temporal cortex / mean SUVP in cerebellum GM: mean (SD). From the text:
The set of standardized uptake values (with repetition) for all voxels within brain region r and subject s may be represented as SUV(r,s). Each of the values of SUV(r,s) may be normalized using a SUVP method represented as follows: SUVP(r,s)=(SUV(r,s)−M)/S, where M corresponds to a peak of the number of counts of emissions events recorded across all of the voxels of the PET image data, and S corresponds to a spread of all of the different counts of emissions events recorded across all of the voxels of the PET image data. Each subject's SUV image may be normalized and transferred into a standardized SUVP, using the standardized uptake value peak-alignment (SUVP) method described herein.
In one particular example, M is the sample mode of rounded SUV(r,s), and S is the standard deviation of SUV(r,s). Furthermore, the peak (M) values, in particular the sample mode of rounded SUV(r,s) may be used as a reference region to normalize raw SUV data using methods similar to SUVR.
In addition, as shown in step 112, a SUVP method may also be used to analyze regional percentages of positive binding in the PET data. Positive binding may be defined based on a predetermined cutoff value. The predetermined cutoff value may be any suitable value that is well above background signal. In some embodiments, the predetermined cutoff value may be manually set by a user. One important advantage of SUVP is that it standardized range of whole brain SUV into a generally fixed range regardless of tracer or disease condition, allowing universal cutoff for different tracers (e.g., 1.5 for all tracers), while SUVR cutoffs are tracer-dependent and varies across different studies (e.g., 1.5 for THK5315 and 1.2 for AV1451). Additionally, as discussed further below in Example I, when SUVP was calculated by using a standard deviation (SD), 1.5 times a SUVP cutoff value is equivalent to 1.5 times SD, which signifies a statistic meaningful way to distinguish and identify positive voxels. The percentage of positive binding (PBP) may be obtained by:
Subjects come from two sources. 18 subjects (9 AD patients, and 9 healthy elderly study participants) underwent ^18F-THK5351 PET scans from the memory clinic of Tohoku University Hospital. ^18F-AV-1451 scans were obtained from the ADNI (Alzheimer's Disease Neuroimaging Initiative) database (adni.loni.usc.edu). 32 Subjects (20 NL and 12 AD) with ^18F-AV-1451 were selected from ADNI, that were matched to the age and MMSE in participants of the THK5351 group.
PET imaging was performed using an Eminence STARGATE PET scanner (Shimadzu, Kyoto, Japan). After intravenous injection of ^18F-THK5351 (185 MBq), dynamic PET images were obtained for 60 min. acquisition matrix is 128×128×79 and voxels size is 2×2×2.6 mm. ^18F-THK5351 was synthesized. MRI was performed on all participants. T1 weighted MR images were obtained using a SIGNA 1.5-Tesla machine (General Electric, Milwaukee, Wis.). In T1-weighted MRI, a 3D volumetric acquisition of a T1-weighted gradient echo sequence produced a gapless series of thin axial sections by using a vascular TOF SPGR sequence (echo time/repetition time, 2.4/50 ms; flip angle, 45°; acquisition matrix, 256×256; 1 excitation; field of view, 22 cm; slice thickness, 2.0 mm).
AV-1451 data were downloaded from ADNI with series description “AV1451 Coreg, Avg, Std Img and Vox Siz, Uniform Resolution”. An intravenous injection of 10 mCi ^18F-AV-1451 (370 MBq) is followed by a saline flush. At approximately 75 minutes following injection, a continuous 30-minute brain scan (6 frames of 5-minute duration) was performed after a CT or transmission scan for attenuation correction. PET imaging was performed using GEMINI TF TOF 16 (Philips Medical Systems), with 6 frames; acquisition matrix 128×128×90; pixel spacing 2×2 mm; slice thickness 2 mm. […]

The target in assay [2] is T1, Monoamine oxidase B (MAO-B) (Homo sapiens, UniProt P27338).
T1 construct: from tissue; host or cells: brain of living AD patients and normal control subjects (in vivo PET)
T1 sequence (P27338 1-520): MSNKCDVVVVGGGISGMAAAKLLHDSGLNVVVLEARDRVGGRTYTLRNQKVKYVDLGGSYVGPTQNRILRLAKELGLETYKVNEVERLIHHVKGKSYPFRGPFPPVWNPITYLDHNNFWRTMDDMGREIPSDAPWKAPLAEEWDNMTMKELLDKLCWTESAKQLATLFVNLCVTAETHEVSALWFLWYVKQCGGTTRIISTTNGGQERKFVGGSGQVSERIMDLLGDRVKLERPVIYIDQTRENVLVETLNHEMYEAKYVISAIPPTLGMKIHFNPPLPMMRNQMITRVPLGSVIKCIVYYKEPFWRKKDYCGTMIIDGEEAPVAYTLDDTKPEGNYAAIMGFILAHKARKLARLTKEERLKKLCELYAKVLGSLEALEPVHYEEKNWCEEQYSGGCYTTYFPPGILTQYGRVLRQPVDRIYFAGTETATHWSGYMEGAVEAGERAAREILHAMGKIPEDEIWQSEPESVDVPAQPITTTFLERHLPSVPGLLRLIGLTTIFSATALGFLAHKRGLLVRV
Kind of assay: MAO-B off-target binding of tau PET tracer. Conditions: SUVP data, Example I. Type of assay: in vivo.

For assay [3], the target named is T1, Monoamine oxidase B (MAO-B). Conditions: recent data, background; cited from earlier work.

For the compound `[18F]c1ccc(-c2ccc3c(c2)[nH]c2ccncc23)cn1` [AV-1451], in assay [1] (AD patients), the “PBP of SUVP, Basal ganglia” value is recorded as 18.55(12.28)^; the “PBP of SUVP, Cerebellar GM” value is “.90(1.46)”; the “PBP of SUVP, Cerebral GM” value was 9.4(10.83)^+; the “PBP of SUVP, Cerebral WM” value is reported as 7.86(7.44)^+. Moreover, in assay [1] (AD patients), the “PBP of SUVP, Frontal cortex” value was 5.32(7.70)^; the “PBP of SUVP, Occipital cortex” value was 5.59(8.23)^+; the “PBP of SUVP, Partial cortex” value is 10.2(15.2)^+; the “PBP of SUVP, Temporal cortex” value is recorded as 20.72(20.48)*^+. Also, the “mean SUVP in cerebellum GM” value in assay [1] (AD patients) is listed as −0.73(0.43). Moreover, the “increase of cerebellar GM SUVP in AD comparing to NL” value in assay [1] (AD vs NL) is recorded as 37%. For the same compound, in assay [1] (NL subjects), the “PBP of SUVP, Basal ganglia” value is reported as 28.14(11.42); the “PBP of SUVP, Cerebellar GM” value was “.83(1.45)”; the “PBP of SUVP, Cerebral GM” value is given as 1.85(3.24); the “PBP of SUVP, Cerebral WM” value is listed as 2.65(3.64). In addition, in assay [1] (NL subjects), the “PBP of SUVP, Frontal cortex” value is reported as 0.78(1.43); the “PBP of SUVP, Occipital cortex” value was 0.54(1.58); the “PBP of SUVP, Partial cortex” value is 0.95(3.21); the “PBP of SUVP, Temporal cortex” value is listed as 5.44(11.10). Further, in assay [1] (NL subjects), the “mean SUVP in cerebellum GM” value is given as −1.00(0.45).

For `CNc1ccc(-c2ccc3cc(OC[C@H](O)CF)ccc3n2)cn1` [THK5351], in assay [1] (AD patients), the “PBP of SUVP, Basal ganglia” value is on record as 61.93(7.25); the “PBP of SUVP, Cerebellar GM” value is reported as “.07(.10)”; the “PBP of SUVP, Cerebral GM” value is on record as 5.56(1.47); the “PBP of SUVP, Cerebral WM” value is 8.70(3.24). Also, in assay [1] (AD patients), the “PBP of SUVP, Frontal cortex” value is recorded as 1.25(0.86)^; the “PBP of SUVP, Occipital cortex” value was 1.73(2.79)^; the “PBP of SUVP, Partial cortex” value was 2.16(3.33)^+; the “PBP of SUVP, Temporal cortex” value is on record as 17.94(5.15)*^+. Further, the “mean SUVP in cerebellum GM” value in assay [1] (AD patients) is reported as −1.24(0.24). The “decrease of cerebellum GM SUVP in AD comparing to NL” value in assay [1] (AD vs NL) came out at 2.5%. Also, in assay [1] (NL subjects), the “PBP of SUVP, Basal ganglia” value is listed as 81.24(8.55)^++; the “PBP of SUVP, Cerebellar GM” value is given as “.10(.14)”; the “PBP of SUVP, Cerebral GM” value is 3.81(2.19); the “PBP of SUVP, Cerebral WM” value is listed as 7.06(1.55). In assay [1] (NL subjects), the “PBP of SUVP, Frontal cortex” value is reported as 2.37(1.25)^+; the “PBP of SUVP, Occipital cortex” value is 0.05(0.09); the “PBP of SUVP, Partial cortex” value is recorded as 0.17(0.21); the “PBP of SUVP, Temporal cortex” value is 6.93(4.78). Also, the “mean SUVP in cerebellum GM” value in assay [1] (NL subjects) is −1.21(0.28). Besides, the MAO-B off-target binding result in assay [2] is “MAO-B off-target binding in THK5351 was observed”. For the same compound, the MAO-B binding result in assay [3] is on record as “widespread Monoamine oxidase B (MAO-B) binding”.
